Test results reported in patent publication US20250282844A1, “METHODS FOR CONTROLLING IMMUNE CELL ACTIVITY” (BIOSCEPTRE (AUST) PTY LTD, priority 2021, published 2025).

Tested on: JeKo-1 cells
Experiment: Co-culture of T cells (unmodified or expressing nfP2X7 CAR) with JeKo-1 cells, with or without blocking peptide
Format: cell-based
Details: FIG. 3
Procedure: More specifically, T cells (either unmodified or expressing nfP2X7 CAR) were cultured with JeKo-1 cells at an ET ratio of 5 to 1. Blocking was performed using peptide variant 2 at 5 μg/mL.
On day 5 of co-culture the cell counts were measured and evaluated for total JeKo-1 cell count. The total number of JeKo-1 cells added in the experiment was 20,000 on day 1 and day 3 of the experiment (therefore the total amount of added cells was 40,000 JeKo-1 per condition).
Addition of the blocking peptide variant 2 at 5 ug/mL reversed this such that after 5 days, 40,000 JeKo-1 cells were present in culture.

Sequence: DFPGHNYTTRNILPGLNITSTFHKTSGSGKGGGGS (E200_extended peptide 17v12 (35 aa) + linker) [peptide variant 2]
- total JeKo-1 cell count (T cells expressing nfP2X7 CAR, ET 5 to 1, peptide at 5 ug/mL, day 5 of co-culture, 40,000 JeKo-1 added in total): 40,000 cells
- total JeKo-1 cell count (T cells that do not express nfP2X7 CAR (60,000 cells after 5 days without peptide), effect of adding blocking peptide): not changed
